Columns and labels:
[1] = Permeability from apical to basolateral side in human Caco2 cells; type: ADME, cell-based; details: Caco-2, read-out: permeability
[2] = Permeability from basolateral to apical side in human Caco2 cells; type: ADME, cell-based; details: Caco-2, read-out: permeability

Compound	Papp A→B [1]	Papp B→A [2]
Cc1[nH]n(-c2ccccn2)c(=O)c1-c1ccc(C(F)(F)F)cc1	3.1 ×10⁻⁶ cm/s	7.9 ×10⁻⁶ cm/s
Cc1[nH]n(-c2ccccn2)c(=O)c1-c1ccc(C#N)cc1	21.4 ×10⁻⁶ cm/s	27.8 ×10⁻⁶ cm/s
Cc1[nH]n(-c2ccccn2)c(=O)c1C(=O)Nc1ccccc1	10.4 ×10⁻⁶ cm/s	19.6 ×10⁻⁶ cm/s
Cc1nn(-c2ccccn2)c(O)c1-c1ccccc1	8.2 ×10⁻⁶ cm/s	16.7 ×10⁻⁶ cm/s
Cc1[nH]n(-c2ccccn2)c(=O)c1C(=O)Nc1cccc(C(F)(F)F)c1	4.5 ×10⁻⁶ cm/s	8.9 ×10⁻⁶ cm/s
Cc1[nH]n(-c2nccs2)c(=O)c1-c1ccccc1	23.9 ×10⁻⁶ cm/s	23.8 ×10⁻⁶ cm/s
Cc1ccc2nc(-n3nc4c(c3O)-c3ccccc3CC4)sc2c1	5.2 ×10⁻⁶ cm/s	3.4 ×10⁻⁶ cm/s
Cc1[nH]n(-c2ccccn2)c(=O)c1C(=O)Nc1ccc([N+](=O)[O-])cc1	7.6 ×10⁻⁶ cm/s	11.5 ×10⁻⁶ cm/s
Cc1nn(-c2nc3ccccc3[nH]2)c(O)c1-c1ccccc1	10.1 ×10⁻⁶ cm/s	13.5 ×10⁻⁶ cm/s
Cc1[nH]n(-c2ccccn2)c(=O)c1C(=O)Nc1ccccc1C(F)(F)F	7.8 ×10⁻⁶ cm/s	14.2 ×10⁻⁶ cm/s
Cc1ccc(NC(=O)c2c(C)[nH]n(-c3ccccn3)c2=O)cc1	6.1 ×10⁻⁶ cm/s	15.3 ×10⁻⁶ cm/s
Oc1c2c(nn1-c1nc3ccc(F)cc3s1)CCc1ccccc1-2	4.3 ×10⁻⁶ cm/s	1.1 ×10⁻⁶ cm/s
COc1ccc(NC(=O)c2c(C)[nH]n(-c3ccccn3)c2=O)cc1F	6.6 ×10⁻⁶ cm/s	13.2 ×10⁻⁶ cm/s
Cc1[nH]n(-c2ccccn2)c(=O)c1-c1ccc([N+](=O)[O-])cc1	3.5 ×10⁻⁶ cm/s	5.6 ×10⁻⁶ cm/s
Cc1[nH]n(-c2ccccn2)c(=O)c1-c1cccc(C(F)(F)F)c1	7 ×10⁻⁶ cm/s	5.8 ×10⁻⁶ cm/s
CCN(CC)c1ccc(/C=C2\C(=O)N(c3ccccn3)N=C2C)cc1	0.3 ×10⁻⁶ cm/s	0.6 ×10⁻⁶ cm/s

Compound	Papp A→B [1]	Papp B→A [2]
Oc1c2c(nn1-c1ccccn1)CCc1cc(-c3ccccc3)ccc1-2	0.1 ×10⁻⁶ cm/s	0.9 ×10⁻⁶ cm/s
Oc1c2c(nn1-c1nc3ccccc3s1)CCc1ccccc1-2	20.8 ×10⁻⁶ cm/s	24 ×10⁻⁶ cm/s
Cc1cccc(NC(=O)c2c(C)[nH]n(-c3ccccn3)c2=O)c1	9.9 ×10⁻⁶ cm/s	15.6 ×10⁻⁶ cm/s
Oc1c2c(nn1-c1ccccn1)CCc1ccccc1-2	8.9 ×10⁻⁶ cm/s	11.7 ×10⁻⁶ cm/s
COc1ccc2nc(-n3nc4c(c3O)-c3ccccc3CC4)sc2c1	12.7 ×10⁻⁶ cm/s	16.7 ×10⁻⁶ cm/s
N#Cc1ccc2c(c1)CCc1nn(-c3ccccn3)c(O)c1-2	2.3 ×10⁻⁶ cm/s	13.1 ×10⁻⁶ cm/s
Cc1[nH]n(-c2ccccn2)c(=O)c1C(=O)Nc1ccc(C(F)(F)F)cc1	0.6 ×10⁻⁶ cm/s	3.9 ×10⁻⁶ cm/s
COc1cccc(NC(=O)c2c(C)[nH]n(-c3ccccn3)c2=O)c1	9 ×10⁻⁶ cm/s	15.4 ×10⁻⁶ cm/s
Oc1c2c(nn1-c1nc3ccccc3[nH]1)CCc1ccccc1-2	5.1 ×10⁻⁶ cm/s	6.3 ×10⁻⁶ cm/s
Oc1c2c(nn1-c1ccccn1)CCc1cc(Br)ccc1-2	3.2 ×10⁻⁶ cm/s	7.6 ×10⁻⁶ cm/s
COc1ccc(-c2c(C)[nH]n(-c3ccccn3)c2=O)cc1	12.7 ×10⁻⁶ cm/s	16.3 ×10⁻⁶ cm/s
Cc1[nH]n(-c2ccccn2)c(=O)c1C(=O)Nc1ccccc1[N+](=O)[O-]	11.2 ×10⁻⁶ cm/s	15.5 ×10⁻⁶ cm/s
Cc1[nH]n(-c2nc3ccc(F)cc3s2)c(=O)c1-c1ccccc1	16.8 ×10⁻⁶ cm/s	20.1 ×10⁻⁶ cm/s
Cc1[nH]n(-c2ccccn2)c(=O)c1-c1ccc(F)cc1	11.2 ×10⁻⁶ cm/s	15.9 ×10⁻⁶ cm/s
Cc1[nH]n(-c2ccccn2)c(=O)c1C(=O)Nc1ccc2c(c1)OCO2	9.3 ×10⁻⁶ cm/s	20.8 ×10⁻⁶ cm/s
Cc1nn(-c2nc3ccccc3s2)c(O)c1-c1ccccc1	6.7 ×10⁻⁶ cm/s	6.6 ×10⁻⁶ cm/s
